According to patent US20120024744A1, “Soil-related and/or Crop-related Applications for Chlorine Dioxide” (DHARMA IP, LLC, priority 2010, published 2012):

Assay: Enhanced solubility of beta-cyclodextrin in water containing ClO2
Format: physicochemical
Settings: 100 g slurries, 5% (w/w) in 8000 ppm ClO2 vs ultrapure water, 200 rpm, 3 days

weight of dried undissolved beta-cyclodextrin, ClO2 containing slurry less than control slurry: 0.32 g
Structure (SMILES): OC[C@H]1O[C@@H]2O[C@H]3[C@H](O)[C@@H](O)[C@@H](O[C@H]4[C@H](O)[C@@H](O)[C@@H](O[C@H]5[C@H](O)[C@@H](O)[C@@H](O[C@H]6[C@H](O)[C@@H](O)[C@@H](O[C@H]7[C@H](O)[C@@H](O)[C@@H](O[C@H]8[C@H](O)[C@@H](O)[C@@H](O[C@H]1[C@H](O)[C@H]2O)O[C@@H]8CO)O[C@@H]7CO)O[C@@H]6CO)O[C@@H]5CO)O[C@@H]4CO)O[C@@H]3CO [beta-cyclodextrin]
